Data taken from patent US20150342959A1, “METHODS AND COMPOSITIONS FOR SUSTAINED N[…]” (DemeRx, Inc., priority 2014, published 2015).

Assays:
[1] = system: healthy, drug-free male volunteers; assay: Pupillometry (pupillary miosis, dark-adapted pupil diameter); assay type: in vivo, human; details: adjusted for baseline, p>0.9
Description: (§1) Pulse oximetry and capnography data were collected continuously using a GE Carescape B650 monitoring system from 2 hours prior to dosing and until six hours after dosing, and thereafter at 12, 24, 48 and 72 hours post-dosing. Additional oximetry data were collected at 120, 168 and 216 hours. Pupillary miosis was assessed by pupillometry. Dark-adapted pupil diameter was measured in triplicate using a Neuroptics PLR-200 pupillometer under standardized light intensity (<5 lux) pre-dose, and at 2, 4, 6, 12, 24, 48, 72, 96, 120, 168 and 216 hours post-dosing.
(§2) Summary statistics (means, standard deviations, and coefficients of variation) were determined for each dose group for safety laboratory test data, ECG and pharmacokinetic parameters, and pharmacodynamic variables. Categorical variables were analysed using counts and percentages. Dose-proportionality of AUC and Cmax was assessed using linear regression. The effect of dose on pharmacodynamic parameter values over time was assessed using two-factor analysis of variance (ANOVA). Pairwise comparisons (with Tukey-Kramer adjustment) between each dose group to the placebo were conducted at each time point using the least squares estimates obtained from the ANOVA, using SAS Proc Mixed (SAS ver 6.0).

[2] = system: healthy, drug-free male volunteers; assay: Cold pressor test (analgesic effect); assay type: in vivo, human; details: adjusted for baseline
Description: as §2
Analgesic effect was assessed based on duration of hand immersion in ice water and on visual analog scale (VAS) pain scores upon hand removal from the water bath.
(§3) Safety and tolerability of noribogaine were tested in the group of volunteers from Example 1. Cold pressor testing was conducted in 1° C. water according to the method of Mitchell et al. (J Pain 5:233-237, 2004) pre-dose, 6, 24, 48, 72 and 216 hours post-dosing. Safety evaluations included clinical monitoring, recording of adverse events (AEs), safety laboratory tests, vital signs, ECG telemetry from −2 h to 6 h after dosing, and 12-lead electrocardiograms (ECGs) up to 216 hours post-dosing.

[3] = system: healthy, drug-free male volunteers; assay: Safety and tolerability of noribogaine in healthy humans (adverse events, vital signs, ECG); assay type: in vivo, human
Description: as §1, §3

[4] = system: opioid-dependent participants; assay: Time to resumption of morphine (opioid substitution treatment, OST); assay type: in vivo, human
[5] = system: opioid-dependent participants; assay: Opiate withdrawal scales (COWS, SOWS, OOWS); assay type: in vivo, human; details: first six hours following dosing
Description: Patients were evaluated based on the Clinical Opiate Withdrawal Scale (COWS), Subjective Opiate Withdrawal Scale (SOWS), and Objective Opiate Withdrawal Scale (OOWS) scoring systems over the period of time between administration of noribogaine (or placebo) until resumption of OST. These scales are outlined in Guidelines for the Psychosocially Assisted Pharmacological Treatment of Opioid Dependence, World Health Organization, Geneva (2009), Annex 10, which is incorporated herein by reference in its entirety. The scales measure the intensity of withdrawal symptoms, based on clinical, subjective, and objective indicia.

[6] = Pharmacokinetics in opioid-dependent patients (Phase IB study, serum noribogaine); details: 60, 120, 180 mg

## CC[C@H]1CC2C[C@H]3c4[nH]c5ccc(O)cc5c4CCN(C2)C13 [noribogaine]
[1]
  pupil diameter, each dose group vs placebo by ANOVA: no statistically significant differences
[2]; p=0.17
  VAS pain scores, each dose group vs placebo by ANOVA: no statistically significant differences
[2]; p>0.9
  duration of hand immersion, each dose group vs placebo by ANOVA: no statistically significant differences
[3]; 3 mg dose group
  adverse events reported: five adverse events were reported by two subjects
[3]; 10 mg dose group
  adverse events reported: one adverse event was reported by single subjects
[3]; 30 mg dose group
  adverse events reported: one adverse event was reported by single subjects
[3]; 3-60 mg
  changes in oximetry, capnography, respiratory rate: no changes in oximetry or capnography, or changes in respiratory rate
  changes in vital signs or safety laboratory tests: no changes in vital signs or safety laboratory tests of note
[4]; 180 mg, longer than untreated patients (7 hours, not shown) or 60 mg
  Time to resumption of OST: > 7 h
[4]; single 120 mg dose
  average time to resumption of opioids: greater than 20 hours
[5]; 120 mg
  withdrawal symptoms (COWS, OOWS, SOWS): fewer withdrawal symptoms than the other patients
[5]; 60, 120, 180 mg
  withdrawal symptoms, noribogaine vs placebo: placebo generally experienced more withdrawal symptoms than patients who were administered noribogaine
[6]
  Maximum serum concentration of noribogaine (Cmax), dose dependence: increased in a dose-dependent manner
